Assay results: patent US6903132B2, “Non-peptide GnRH agents, pharmaceutical compositions and methods for their use” (Agouron Pharmaceuticals, Inc., priority 2002, dated 2005)

Target: T1, human GnRH receptors (Homo sapiens, UniProt P30968)
T1 construct: expressed in transfected cells; host or cells: HEK 293
T1 sequence (P30968 1-328): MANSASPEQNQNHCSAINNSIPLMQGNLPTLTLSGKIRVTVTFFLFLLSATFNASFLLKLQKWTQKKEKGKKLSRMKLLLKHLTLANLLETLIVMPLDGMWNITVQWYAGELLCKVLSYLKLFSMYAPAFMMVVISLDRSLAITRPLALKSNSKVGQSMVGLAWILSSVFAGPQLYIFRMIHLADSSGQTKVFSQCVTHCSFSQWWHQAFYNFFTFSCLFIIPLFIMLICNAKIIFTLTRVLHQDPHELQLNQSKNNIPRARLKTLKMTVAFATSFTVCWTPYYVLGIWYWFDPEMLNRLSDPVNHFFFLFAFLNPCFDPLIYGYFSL
Assay: Radioligand binding assay: inhibition of binding of 125I-GnRH-A to GnRH receptors (membranes)
Conditions: Human GnRH receptor; competition with 125I-GnRH-A; Ki calculated from IC50 (Cheng et al.)
Experimental: HEK 293 cells stably transfected with mouse or human GnRH receptors as described above are grown in Dulbecco's high-glucose, modified Eagle's medium (DMEM) supplemented with 0.2% G418, 10% fetal bovine serum (FBS) and 100U/mL penicillin/streptomycin. GH3 cells stably transfected with the rat GnRH receptor (GGH3) were provided by Dr. William Chin (Harvard Medical School, Boston, Mass.). These cells are extensively characterized previously (Kaiser et al., 1997). The cells are grown in low glucose DMEM containing: 100U/mL penicillin/streptomycin, 0.6% G418 and 10% heat-inactivated FBS.
HEK 293 cells containing mouse or human receptors, or rat pituitaries (Pel Freez Biologicals, Rogers, Ark.) are homogenized in buffer A containing: 50 mM Tris (pH 7.4), 0.32 M sucrose, 2 mM EGTA, 1 mM PMSF, 5 μg/ml aprotinen, 5 μg/ml Pepstatin A, and 1 μg/ml leupeptin. Homogenized cells are centrifuged at 4° C. at 20,000×g for 25 minutes, re-suspended in buffer A and re-centrifuged at 4° C. at 20,000×g for an additional 25 minutes. Total membrane protein was determined with a BCA kit (Pierce, Rockford, Ill.). Membranes are stored at −70° C. at a final membrane protein concentration of approximately 5 mg/ml.
The radioiodinated agonist analog of GnRH, [des-Gly^10, D-Ala^6]GnRH ethylamide (^125I-GnRH-A), is used as the radioligand. One μg of GnRH-A diluted in 0.5 M phosphate buffer (pH 7.4) is added to an lodogen®-coated borosilicate glass tube (Pierce, Rockford, Ill.) containing 35 μl of 0.05 M phosphate buffer (pH 7.4-7.6) and 1 mCi of Na[^125I]. The reaction mixture is vortexed and incubated for 1 minute at room temperature. After one minute, the mixture is vortexed and allowed to incubate for an additional minute. 2 ml of 0.5 M acetic acid/1% BSA is added to the reaction tube and the mixture is added to a C18 Sep-Pak cartridge. The cartridge is washed with subsequent washes of 5 ml H2O and 5 ml 0.5 M acetic acid and then eluted with 5×1 ml of 60%CH3CN/40% 0.5 M acetic acid. The eluate is diluted with 3× volume of HPLC buffer A (0.1% TFA in H2O) and loaded onto a C18 column. The iodinated product is eluted over 20-25 min with a gradient of 25-100% CH3CN containing 0.1% TFA. The radioactive fractions (750 μl/fraction) are collected into clean polypropylene tubes containing 100 μl of 10% BSA. Fractions are assessed for biological activity by radiolig and binding. Specific activity of the radioligand was approximately 2200 Ci/mmol.
Membranes are diluted to 0.01-0.5 mg/ml (depending upon the species of receptor) with assay buffer containing 50 mM HEPES (pH 7.4), 1 mM EDTA, 2.5 mM MgCl2, and 0.1% BSA. Membranes (diluted to utilize similar receptor numbers between assays) are incubated with approximately 0.04-0.06 nM ^125I-GnRH-A in the presence or absence of competing agents (0.1-10,000 nM) in a total volume of 200 μl in 96-well polypropylene plates for 1 hour at room temperature. Assays are stopped by rapid filtration onto 96-well GF/C filters soaked in 0.1% polyethylenimine (PEI) utilizing a Packard 96-well cell harvester. Filters are washed three times with ice-cold PBS (50 mM NaPO4, 0.9% NaCl, 2 mM MgCl2, and 0.02% NaN3, pH 7.4). 35 μl of scintillation cocktail is added to each filter well and filters are counted on a Packard Topcount. Control dose-response curves are generated to GnRH (0.1 nM-100 nM) in each competition binding experiment. Ki values were calculated from IC50 values according to Cheng et al., Biochemical Pharmacol. 22: 3099-3108, 1973. [formula]

Row | Ki [nM] | Structure (SMILES)
1 | 1670 | Cc1cccc(C)c1SCc1ccc(C(=O)NNc2cc(C)c3c(C)nn(C)c3n2)o1 [Example J25, 5-{[(2,6-dimethylphenyl)sulfanyl]methyl}-N′-(1,3,4-trimethyl-1H-pyrazolo[3,4-b]pyridin-6-yl)-2-furohydrazide]
2 | 4430 | Cc1nc2ccccc2c(Cl)c1Cc1ccc(C(=O)NNc2cc(C)c3c(C)nn(C)c3n2)o1 [Example K1, 5-(4-Chloro-2-methyl-quinolin-3-ylmethyl)-furan-2-carboxylic acid N′-(1,3,4-trimethyl-1H-pyrazolo[3,4-b]pyridin-6-yl)-hydrazide]
3 | 3890 | COc1cc(Cc2ccc(C(=O)NNc3cc(C)c4c(C)nn(C)c4n3)o2)c(OC)c(OC)c1 [Example J8, 5-(2,3,5-trimethoxybenzyl)-N′-(1,3,4-trimethyl-1H-pyrazolo[3,4-b]pyridin-6-yl)-2-furohydrazide]
4 | ≥ 10000 | Cc1cc(O)ccc1Cc1ccc(C(=O)NNc2cc(C)c3c(C)nn(C)c3n2)o1 [Example J21, 5-(4-Hydroxy-2-methylbenzyl)-N′-(1,3,4-trimethyl-1H-pyrazolo[3,4-b]pyridin-6-yl)-2-furohydrazide]
5 | 2110 | Cc1cc(NNC(=O)c2ccc(Oc3cc4c(cc3Cl)NC(=O)CC4(C)C)o2)nc2c1c(C)nn2C [Example L1]
6 | > 10000 | COc1cc(OC)c(OC)cc1Cc1ccc(C(=O)NNc2cc(C)c3c(C)nn(C)c3n2)o1 [Example J14, 5-(2,4,5-trimethoxybenzyl)-N-(1,3,4-trimethyl-1H-pyrazolo[3,4-b]pyridin-6-yl)-2-furohydrazide]
7 | 4770 | COc1ccc(OC)c(OC)c1Cc1ccc(C(=O)NNc2cc(C)c3c(C)nn(C)c3n2)o1 [Example J9, 5-(2,3,6-trimethoxybenzyl)-N′-(1,3,4-trimethyl-1H-pyrazolo[3,4-beta]pyridin-6-yl)-2-furohydrazide]
8 | 16100 | COc1ccc(OC)c(Cc2ccc(C(=O)NNc3cc(C)c4c(C)nn(C)c4n3)o2)c1 [Example J6, 5-(2,5-Dimethoxy-benzyl)-furan-2-carboxylic acid N′-(1,3,4-trimethyl-1H-pyrazolo[3,4-b]pyridin-6-yl)-hydrazide]
9 | 1500 | Cc1cc2c(cc1Oc1ccc(C(=O)NNc3ccc(C(F)(F)F)cn3)o1)C(C)(C)OC2 [Example N4, 5-(3,3,6-Trimethyl-1,3-dihydro-isobenzofuran-5-yloxy)-furan-2-carboxylic acid N′-(5-trifluoromethyl-pyridin-2-yl)-hydrazide]
10 | 5230 | Cc1c(C)c(Cc2ccc(C(=O)NNc3cc(C)c4c(C)nn(C)c4n3)o2)c(C)c(Cc2ccc(C(=O)NNc3cc(C)c4c(C)nn(C)c4n3)o2)c1C [Example J29, 3-(2,3,4,6-Tetramethyl-5-{5-[N′-(1,3,4-trimethyl-1H-pyrazolo[3,4-b]pyridin-6-yl)-hydrazinocarbonyl]-furan-2-ylmethyl}-benzyl)-furan-1-carboxylic acid N′-(1,3,4-trimethyl-1H-pyrazolo[3,4-b]pyridin-6-yl)-hydrazide]
11 | 5020 | Cc1cc(NNC(=O)c2ccc(Oc3cc4c(cc3Cl)N(C)C(=O)CC4(C)C)o2)nc2c1c(C)nn2C [Example L2, 5-(7-Chloro-1,4,4-trimethyl-2-oxo-1,2,3,4-tetrahydro-quinolin-6-yloxy)-furan-2-carboxylic acid N′-(1,3,4-trimethyl-1H-pyrazolo[3,4-b]pyridin-6-yl)-hydrazide]
12 | 610 | Cc1ccc(C)c(Cc2ccc(C(=O)NNc3cc(C)c4c(C)nn(C)c4n3)o2)c1 [Example J17]
13 | 1140 | Cc1cc2c(cc1Oc1ccc(C(=O)NNc3ncc(C(F)(F)F)cc3Cl)o1)C(C)(C)OC2 [Example N1, 5-(3,3,6-Trimethyl-1,3-dihydro-isobenzofuran-5-yloxy)-furan-2-carboxylic acid N′-(chloro-trifluoromethyl-pyridin-2-yl)-hydrazide]
14 | > 10000 | CCC(C)(C)c1ccc(OC)c(Cc2ccc(C(=O)NNc3cc(C)c4c(C)nn(C)c4n3)o2)c1 [Example J13, 5-[2-Methoxy-5-(tert-pentyl)benzyl]-N′-(1,3,4-trimethyl-1H-pyrazolo[3,4-b]pyridin-6-yl)-2-furohydrazide]

More lines, now with the values behind:

Row | Structure (SMILES) | Ki [nM]
15 | Cc1cc(C)cc(NNC(=O)c2ccc(Cc3cc4c(cc3C)C(C)(C)CCC4(C)C)o2)c1 [Example B2, N′-(3,5-dimethylphenyl)-5-[(3,5,5,8,8-pentamethyl-5,6,7,8-tetrahydro-2-naphthalenyl)methyl]-2furohydrazide] | 310
16 | COc1cc2c(cc1Cc1ccc(C(=O)NNc3nccc(NCC4CCCO4)n3)o1)C(C)(C)CCC2(C)C (stereo not drawn) [Example C7] | 1740
17 | Cc1cc2c(cc1Cc1ccc(C(=O)NNc3c(Cl)cncc3Cl)o1)C(C)(C)CCC2(C)C [Example C8, N′-(3,5-dichloro-4-pyridinyl)-5-[(3,5,5,8,8-pentamethyl-5,6,7,8-tetrahydro-2-naphthalenyl)methyl]-2-furohydrazide] | 410
18 | CC(=O)N(C)c1ccc(C)c(Oc2ccc(C(=O)NNc3cc(C)c4c(C)nn(C)c4n3)o2)c1 [Example I30, N-Methyl-N-(4-methyl-3-{5-[N′-(1,3,4-trimethyl-1H-pyrazolo[3,4-b]pyridin-6-yl)-hydrazinocarbonyl]-furan-2-yloxy}-phenyl)-acetamide] | 630
19 | COc1cccc(OC)c1CNNC(=O)c1ccc(Cc2cc3c(cc2C)C(C)(C)CCC3(C)C)o1 [Example A2] | 700
20 | COc1cc(OC)c(CNNC(=O)c2ccc(Cc3cc4c(cc3C)C(C)(C)CCC4(C)C)o2)c(OC)c1 [Example A1, 5-[(3,5,5,8,8-Pentamethyl-5,6,7,8-tetrahydro-2-naphthalenyl)methyl]-N′-(2,4,6-trimethoxybenzyl)-2-furohydrazide] | 1840
21 | Cc1ccccc1Oc1ccc(C(=O)NNc2cc(C)c3c(C)nn(C)c3n2)o1 [Example I4, 5-(2-Methylphenoxy)-N′-(1,3,4-trimethyl-1H-pyrazolo[3 ,4-b]pyridin-6-yl)-2-furohydrazide] | 980
22 | Cc1cc2c(cc1Oc1ccc(C(=O)NNc3ccc(S(N)(=O)=O)cc3)o1)C(C)(C)CC2 [Example I14, 4-(2-{5-[(3,3,6-Trimethyl-2,3-dihydro-1H-inden-5-yl)oxy]-2-furoyl}hydrazino)benzenesulfonamide] | 225
23 | CCN(CC)C(=O)c1ccc(C)c(Oc2ccc(C(=O)NNc3cc(C)c4c(C)nn(C)c4n3)o2)c1 [Example H1, N,N-diethyl-4-methyl-3-[(5-{[2-(1,3,4-trimethyl-1H-pyrazolo[3,4-b]pyridin-6-yl)hydrazino]carbonyl}-2-furyl)oxy]benzamide] | 5600
24 | Cc1cc(NNC(=O)c2ccc(Cc3cc4c(cc3C(C)C)C(C)(C)CCC4(C)C)o2)nc2c1c(C)nn2C [Example C3, 5-[(3-lsopropyl-5,5,8,8-tetramethyl-5,6,7,8-tetrahydro-2-naphthalenyl)methyl]-N′-(1,3,4-trimethyl-1H-pyrazolo[3,4-b]pyridin-6-yl)-2-furohydrazide] | 300
